Measured values as given in patent US20170306090A1, “METHOD FOR MAKING POLYCARBONATE USING A LIQUID KETONE MIXTURE” (SABIC Global Technologies B.V., priority 2014, published 2017).

Experiment: Solubility of diphenyl carbonate in various ketones (gravimetric method)
[1] = Example 1, Temperature 70 °C, molar ratio of ketone to DPC 1:1
[2] = Example 2, Temperature 50 °C, molar ratio of ketone to DPC 1:1
[3] = Example 3, Temperature 50 °C, molar ratio of ketone to DPC 1.5:1
[4] = Example 4, Temperature 25 °C, molar ratio of ketone to DPC 1:1
[5] = Example 5, Temperature 25 °C, molar ratio of ketone to DPC 1.5:1
[6] = Example 6, Temperature 25 °C, molar ratio of ketone to DPC 2:1

Experimental: The solubility of diphenyl carbonate in various ketones was determined. Solubility was determined based on a gravimetric method.

| Solubility of diphenyl carbonate in the ketone [1] | Solubility of diphenyl carbonate in the ketone [2] | Solubility of diphenyl carbonate in the ketone [3] | Solubility of diphenyl carbonate in the ketone [4] | Solubility of diphenyl carbonate in the ketone [5] | Solubility of diphenyl carbonate in the ketone [6] | SMILES |
| --- | --- | --- | --- | --- | --- | --- |
| Yes | No | Yes | No | No | Yes | CCC(=O)CC [Diethyl ketone, diethyl ketone] |
| Yes | No | Yes | No | No | No | CC(=O)CC(C)C [MIBK, methyl isobutyl ketone] |
